Patent US20080085886A1, “Aza-benzofuranyl compounds and methods of use” (GENENTECH, INC., priority 2006, published 2008)

Each compound was assayed on cellular p-ERK in HCT116 human colorectal carcinoma / A375 human malignant melanoma cell lines (assay: Phospho-ERK cell-based assay (ELISA), Example 4). Conditions: in either one of the cell lines (HCT116, A375), 2 h or 24 h exposure.
Experimental: Example 4 Phospho-ERK Cell-Based Assay
Compounds are tested in a cell-based phospho-ERK ELISA using the following cell lines:
HCT116 human colorectal carcinoma (ATCC)
A375 human malignant melanoma (ATCC)
Both cell lines are maintained in DMEM/F12 (1:1) media (Gibco) supplemented with 10% FCS at 37° C. in a 5% CO2 humidified incubator.
Cells are seeded in 96-well plates at 2,000 cells/well and after 24 h they are exposed to different concentrations of compounds in 0.83% DMSO. Cells are grown for a further 2 h or 24 h, fixed with formaldehyde (2% final) and permeabilised with methanol. Following blocking with TBST-3% BSA, fixed cells are incubated with primary antibody (anti-phospho ERK from rabbit) over-night at 4° C. Cells are incubated with Propidium Iodide (DNA fluorescent dye) and detection of cellular p-ERK is performed using an anti-rabbit secondary antibody conjugated to the fluorescent Alexa Fluor 488 dye (Molecular probes). The fluorescence is analysed using the Acumen Explorer (TTP Labtech), a laser-scanning microplate cytometer, and the Alexa Fluor 488 signal is normalised to the PI signal (proportional to cell number).
The EC50 is defined as the concentration at which a given compound achieves a signal half way between the baseline and the maximum response. EC50 values are calculated using the XLfit software package (version 2.0.5).

| EC50 [µM] | SMILES |
| --- | --- |
| < 10 | O=C(c1oc2c(F)cncc2c1Nc1ccc(I)cc1F)N1CC[C@@H](O)C1 [Example 157, [7-Fluoro-3-(2-fluoro-4-iodo-phenylamino)-furo[3,2-c]pyridin-2-yl]-((R)-3-hydroxy-pyrrolidin-1-yl)-methanone] |
| < 10 | O=C(NCCCO)c1oc2ccncc2c1Nc1ccc(I)cc1F [Example 61, 3-(2-fluoro-4-iodophenylamino)-N-(3-hydroxypropyl)furo[3,2-c]pyridine-2-carboxamide] |
| < 10 | O=C(NOCCO)c1oc2ccnc(Cl)c2c1Nc1ccc(I)cc1F [Example 147, 4-Chloro-3-(2-fluoro-4-iodo-phenylamino)-furo[3,2-c]pyridine-2-carboxylic acid (2-hydroxy-ethoxy)-amide] |
| < 10 | CN(OCCO)C(=O)c1oc2ccncc2c1Nc1ccc(I)cc1F [Example 23, 3-(2-Fluoro-4-iodo-phenylamino)-furo[3,2-c]pyridine-2-carboxylic acid (2-hydroxy-ethoxyl)-methyl-amide] |
| < 10 | C[C@@H](CO)NC(=O)c1oc2ccncc2c1Nc1ccc(I)cc1F [Example 76, 3-(2-fluoro-4-iodophenylamino)-N-((S)-1-hydroxypropan-2-yl)furo[3,2-c]pyridine-2-carboxamide] |
| < 10 | CN(CCO)C(=O)c1oc2ccncc2c1Nc1ccc(I)cc1F [Example 81, 3-(2-fluoro-4-iodophenylamino)-N-(2-hydroxyethyl)-N-methylfuro[3,2-c]pyridine-2-carboxamide] |
| < 10 | CC(C)ONC(=O)c1oc2ccncc2c1Nc1ccc(I)cc1F [Example 43, (2-Fluoro-4-iodo-phenylamino)-N-isopropoxyfuro[3,2-c]pyridine-2-carboxamide] |
| < 10 | C[C@H](O)CONC(=O)c1oc2ccncc2c1Nc1ccc(I)cc1F [Example 118, 3-(2-Fluoro-4-iodo-phenylamino)-furo[3,2-c]pyridine-2-carboxylic acid ((S)-2-hydroxy-propoxy)-amide] |
| < 10 | O=C(NCCCONC(=O)c1oc2ccncc2c1Nc1ccc(I)cc1F)c1ccncc1 [Example 48, (2-Fluoro-4-iodo-phenyl amino)-N-[3-(isonicotinamide)propoxy] furo[3,2-c]pyridine-2-carboxamide] |
| < 10 | O=C(c1oc2c(F)cncc2c1Nc1ccc(I)cc1F)N1C[C@H](O)[C@@H](O)C1 [Example 158, ((3S,4S)-3,4-Dihydroxy-pyrrolidin-1-yl)-[7-fluoro-3-(2-fluoro-4-iodo-phenylamino)-furo[3,2-c]pyridin-2-yl]-methanone] |
| < 10 | O=C(NOCCCO)c1oc2ccncc2c1Nc1ccc(I)cc1F [Example 45, (2-Fluoro-4-iodo-phenyl amino)-N-(3-hydroxypropoxy)furo[3,2-c]pyridine-2-carboxamide] |
| < 10 | O=C(c1oc2ccncc2c1Nc1ccc(I)cc1F)N1CC[C@@H](O)[C@H]1CO [Example 123] |
| < 10 | O=C(c1oc2ccncc2c1Nc1ccc(I)cc1F)N1CC[C@H](O)[C@H]1CO [Example 131, (3-(2-fluoro-4-iodophenylamino)furo[3,2-c]pyridin-2-yl)((2R,3S)-3-hydroxy-2-(hydroxymethyl)pyrrolidin-1-yl)methanone] |
| < 10 | O=C(NCCCONC(=O)c1oc2ccncc2c1Nc1ccc(I)cc1F)c1ccccn1 [Example 46] |
| < 10 | CC(C)(CO)ONC(=O)c1oc2c(F)cncc2c1Nc1ccc(I)cc1F [Example 156, 7-Fluoro-3-(2-fluoro-4-iodo-phenylamino)-furo[3,2-c]pyridine-2-carboxylic acid (2-hydroxy-1,1-dimethyl-ethoxy)-amide] |
| < 10 | O=C(c1oc2ccncc2c1Nc1ccc(I)cc1F)N1C[C@@H](O)[C@H](O)[C@H]1CO [Example 124, (3-(2-fluoro-4-iodophenylamino)furo[3,2-c]pyridin-2-yl)((2R,3R,4R)-3,4-dihydroxy-2-(hydroxymethyl)pyrrolidin-1-yl)methanone] |
| < 10 | O=C(c1oc2ccncc2c1Nc1ccc(I)cc1F)N1C[C@H](O)C[C@H]1CO [Example 127, (3-(2-fluoro-4-iodophenylamino)furo[3,2-c]pyridin-2-yl)((2S,4R)-4-hydroxy-2-(hydroxymethyl)pyrrolidin-1-yl)methanone] |
| < 10 | CCONC(=O)c1oc2ccncc2c1Nc1ccc(I)cc1F [Example 50, (2-Fluoro-4-iodo-phenyl amino)-N-ethoxyfuro[3,2-c]pyridine-2-carboxamide] |

| EC50 [µM] | SMILES |
| --- | --- |
| < 10 | CC(O)CONC(=O)c1oc2ccncc2c1Nc1ccc(I)cc1F (stereo not shown) [Example 55, 3-(2-Fluoro-4-iodo-phenylamino)-furo[3,2-c]pyridine-2-carboxylic acid (2-hydroxy-propoxy)-amide] |
| < 10 | O=C(NCCCONC(=O)c1oc2ccncc2c1Nc1ccc(I)cc1F)c1cccnc1 [Example 47] |
| < 10 | O=C(NOCCO)c1oc2ccncc2c1Nc1ccc(Br)cc1Cl [Example 26, 3-(4-Bromo-2-chloro-phenylamino)-furo[3,2-c]pyridine-2-carboxylic acid (2-hydroxy-ethoxy)-amide] |
| < 10 | O=C(c1oc2ccncc2c1Nc1ccc(I)cc1F)N1CC[C@H](O)C1 [Example 70, (3-(2-fluoro-4-iodophenylamino)furo[3,2-c]pyridin-2-yl)((S)-3-hydroxypyrrolidin-1-yl)methanone] |
| < 10 | CN(C)C(=O)c1oc2ccncc2c1Nc1ccc(I)cc1F [Example 83, 3-(2-fluoro-4-iodophenylamino)-N,N-dimethylfuro[3,2-c]pyridine-2-carboxamide] |
| < 10 | C[C@H](O)CONC(=O)c1oc2c(F)cncc2c1Nc1ccc(I)cc1F [Example 155, 7-Fluoro-3-(2-fluoro-4-iodo-phenylamino)-furo[3,2-c]pyridine-2-carboxylic acid ((S)-2-hydroxy-propoxy)-amide] |
| < 10 | Cc1nccc2oc(C(=O)NOCCO)c(Nc3ccc(I)cc3F)c12 [Example 144, 3-(2-Fluoro-4-iodo-phenylamino)-methyl-furo[3,2-c]pyridine-2-carboxylic acid (2-hydroxy-ethoxy)-amide] |
| < 10 | O=C(NOCCO)c1oc2c(F)cncc2c1Nc1ccc(I)cc1F [Example 139, 7-Fluoro-3-(2-fluoro-4-iodo-phenylamino)-furo[3,2-c]pyridine-2-carboxylic acid (2-hydroxy-ethoxy)-amide] |
| < 10 | O=C(c1oc2ccncc2c1Nc1ccc(I)cc1F)N1CCC[C@H]1CO [Example 79, (3-(2-fluoro-4-iodophenylamino)furo[3,2-c]pyridin-2-yl)((S)-2-(hydroxymethyl)pyrrolidin-1-yl)methanone] |
| < 10 | O=C(NCCO)c1oc2ccncc2c1Nc1ccc(I)cc1F [Example 82, 3-(2-fluoro-4-iodophenylamino)-N-(2-hydroxyethyl)furo[3,2-c]pyridine-2-carboxamide] |
| < 10 | CC(C)(CO)ONC(=O)c1oc2ccncc2c1Nc1ccc(I)cc1F [Example 113, N-(1-hydroxy-2-methylpropan-2-yloxy)-3-(2-Fluoro-4-iodo-phenylamino)furo[3,2-c]pyridine-2-carboxamide] |
| < 10 | N[C@@H]1CCN(C(=O)c2oc3ccncc3c2Nc2ccc(I)cc2F)C1 [Example 74, (3-(2-fluoro-4-iodophenylamino)furo[3,2-c]pyridin-2-yl)((R)-3-aminopyrrolidin-1-yl)methanone] |
| < 10 | CSc1ccc(Nc2c(C(=O)NOCCO)oc3c(Cl)cncc23)c(F)c1 [Example 152, 7-Chloro-3-(2-fluoro-4-methylsulfanyl-phenylamino)-furo[3,2-c]pyridine-2-carboxylic acid (2-hydroxy-ethoxy)-amide] |
| < 10 | O=C(c1oc2ccncc2c1Nc1ccc(I)cc1F)N1CC[C@@H](O)C1 [Example 59, (3-(2-fluoro-4-iodophenyl amino)furo[3,2-c]pyridin-2-yl)((R)-3-hydroxypyrrolidin-1-yl)methanone] |
| < 10 | O=C(c1oc2ccncc2c1Nc1ccc(I)cc1F)N1C[C@H](O)C[C@@H]1CO [Example 126, (3-(2-fluoro-4-iodophenylamino)furo[3,2-c]pyridin-2-yl)((2R,4R)-4-hydroxy-2-(hydroxymethyl)pyrrolidin-1-yl)methanone] |
| < 10 | O=C(c1oc2ccncc2c1Nc1ccc(I)cc1F)N1CC(O)C1 [Example 122, (3-(2-fluoro-4-iodophenylamino)furo[3,2-c]pyridin-2-yl)(3-hydroxyazetidin-1-yl)methanone] |
| < 10 | O=C(NCC(O)CO)c1oc2ccncc2c1Nc1ccc(I)cc1F (stereo not shown) [Example 84, 3-(2-fluoro-4-iodophenylamino)-N-(2,3-dihydroxypropyl)furo[3,2-c]pyridine-2-carboxamide] |

| SMILES | EC50 [µM] |
| --- | --- |
| CC(C)CONC(=O)c1oc2ccncc2c1Nc1ccc(I)cc1F [Example 42, (2-Fluoro-4-iodo-phenylamino)-N-isobutoxyfuro[3,2-c]pyridine-2-carboxamide] | < 10 |
| CC(C)(C)ONC(=O)c1oc2ccncc2c1Nc1ccc(I)cc1F [Example 99, (2-Fluoro-4-iodo-phenylamino)-N-tert-butoxyfuro[3,2-c]pyridine-2-carboxamide] | < 10 |
